Experimental data published in ChEMBL document CHEMBL1149472, “Homobivalent quinazolinimines as novel nanomolar inhibitors of cholinesterases with dirigible selectivity toward butyrylcholinesterase” (J Med Chem, 2006).

Assays:
[1] = Selectivity for horse serum BChE over electric eel AChE
Acetylcholinesterase = Acetylcholinesterase (Electrophorus electricus, UniProt O42275); assay: Inhibition of electric eel AChE
Butyrylcholinesterase = Butyrylcholinesterase (Equus caballus, UniProt Q9N1N9); assay: Inhibition of horse serum BChE
Chain of Butyrylcholinesterase (Q9N1N9 whole entry): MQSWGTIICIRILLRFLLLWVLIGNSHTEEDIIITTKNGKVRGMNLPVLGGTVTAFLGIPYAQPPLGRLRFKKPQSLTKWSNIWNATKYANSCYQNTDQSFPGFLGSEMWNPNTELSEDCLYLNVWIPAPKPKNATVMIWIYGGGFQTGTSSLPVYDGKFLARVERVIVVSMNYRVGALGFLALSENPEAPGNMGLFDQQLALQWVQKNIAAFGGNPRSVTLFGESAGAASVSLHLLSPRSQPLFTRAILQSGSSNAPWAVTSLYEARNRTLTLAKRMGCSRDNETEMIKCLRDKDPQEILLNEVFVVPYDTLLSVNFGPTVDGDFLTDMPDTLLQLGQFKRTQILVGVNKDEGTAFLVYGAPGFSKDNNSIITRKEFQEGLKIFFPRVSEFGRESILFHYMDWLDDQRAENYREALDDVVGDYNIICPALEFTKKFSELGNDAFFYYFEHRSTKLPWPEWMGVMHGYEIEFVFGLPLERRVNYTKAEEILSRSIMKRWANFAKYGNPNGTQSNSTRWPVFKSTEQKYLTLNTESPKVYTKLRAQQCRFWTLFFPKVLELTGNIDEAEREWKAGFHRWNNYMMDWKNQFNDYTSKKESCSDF

[2] = read-out: -Log IC50 (converted)

Chain of Acetylcholinesterase (O42275 whole entry): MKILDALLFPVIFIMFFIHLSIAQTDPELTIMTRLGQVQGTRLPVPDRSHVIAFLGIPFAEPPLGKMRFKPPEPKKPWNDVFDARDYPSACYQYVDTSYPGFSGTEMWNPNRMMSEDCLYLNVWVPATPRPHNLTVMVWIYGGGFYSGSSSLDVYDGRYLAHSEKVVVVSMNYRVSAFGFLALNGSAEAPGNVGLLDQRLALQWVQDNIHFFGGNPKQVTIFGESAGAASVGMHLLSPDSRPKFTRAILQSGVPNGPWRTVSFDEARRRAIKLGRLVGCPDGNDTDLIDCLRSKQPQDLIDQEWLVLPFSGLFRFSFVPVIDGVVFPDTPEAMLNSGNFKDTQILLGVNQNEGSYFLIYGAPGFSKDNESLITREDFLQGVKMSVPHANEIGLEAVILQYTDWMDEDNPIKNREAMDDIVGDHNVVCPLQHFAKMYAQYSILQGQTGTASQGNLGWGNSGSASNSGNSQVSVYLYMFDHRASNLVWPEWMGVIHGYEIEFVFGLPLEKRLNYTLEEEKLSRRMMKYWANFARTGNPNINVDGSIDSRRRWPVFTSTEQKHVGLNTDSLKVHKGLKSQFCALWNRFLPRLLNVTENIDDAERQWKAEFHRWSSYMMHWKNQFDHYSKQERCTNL

Row | Compound | Ratio IC50 [1] | IC50 (Acetylcholinesterase) | IC50 (Butyrylcholinesterase; read-out: IC50) | IC50 (Butyrylcholinesterase; [2])
1 | c1ccc2/c(=N/CCCCCCCC/N=c3/c4ccccc4nc4n3CCCCCC4)n3c(nc2c1)CCCCCC3 | 189 | 14400 nM | 76 nM | 
2 | CCCC/N=c1/c2ccccc2nc2n1CCC2 | 1.7 | 9500 nM | 5500 nM | 
3 | N=c1c2ccccc2nc2n1CCC2 | 1.8 | 13200 nM | 7200 nM | 716 nM
4 | c1ccc2/c(=N/CCCCCCCC/N=c3/c4ccccc4nc4n3CCC4)n3c(nc2c1)CCC3 | 12 | 58 nM | 4.8 nM | 
5 | CCCC/N=c1/c2ccc(Cl)cc2nc2n1CCC2 | 1.7 |  | 2300 nM | 
6 | c1ccc2/c(=N/CCCCCCCC/N=c3/c4ccccc4nc4n3CCCC4)n3c(nc2c1)CCCC3 | 4.9 | 37 nM | 7.6 nM | 
7 | c1ccc2/c(=N/CCCCCCC/N=c3\c4ccccc4nc4n3CCCCCC4)n3c(nc2c1)CCCCCC3 | 2.4 | 65 nM | 27 nM | 
8 | Clc1ccc2c(c1)N=C1CCCN1C2NCCCCCCCC/N=c1/c2ccc(Cl)cc2nc2n1CCC2 (stereo unspecified) | 1.1 | 50.2 nM | 45.4 nM | 
9 | Clc1ccc2/c(=N/CCCCCCC/N=c3\c4ccc(Cl)cc4nc4n3CCC4)n3c(nc2c1)CCC3 | 1 | 59 nM | 61 nM | 
10 | N=c1c2ccccc2nc2n1CCCCCC2 | 4.9 | 14600 nM | 3000 nM | 
11 | c1ccc2/c(=N/CCCCCCC/N=c3\c4ccccc4nc4n3CCCCC4)n3c(nc2c1)CCCCC3 | 1.6 | 40 nM | 24 nM | 
12 | c1ccc2/c(=N/CCCCCCCC/N=c3/c4ccccc4nc4n3CCCCC4)n3c(nc2c1)CCCCC3 | 98 | 1280 nM | 13 nM | 
13 | c1ccc2/c(=N/CCCCCCC/N=c3\c4ccccc4nc4n3CCCC4)n3c(nc2c1)CCCC3 | 9 | 77 nM | 8.5 nM | 
14 | CC(=O)/N=c1/c2ccccc2nc2n1CCC2 | 0.6 | 115000 nM | 204000 nM | 428000 nM
15 | c1ccc2/c(=N/CCCCCCC/N=c3\c4ccccc4nc4n3CCC4)n3c(nc2c1)CCC3 | 0.9 | 79 nM | 88 nM | 
